{
  "source": "ChEMBL document CHEMBL1201862",
  "about": "“PubChem BioAssay data set” (2004)",
  "experiment_in_all_cases": "NCI anticancer screen, dose series, 48 h",
  "key": {"[1]": {"system": "786-0"}, "[2]": {"system": "A498"}, "[3]": {"system": "A549"}, "[4]": {"system": "ACHN"}, "[5]": {"system": "CAKI-1"}, "[6]": {"system": "COLO 205"}, "[7]": {"system": "DLD-1"}, "[8]": {"system": "DMS-114"}, "[9]": {"system": "DMS-273"}, "[10]": {"system": "EKVX"}, "[11]": {"system": "HCT-116"}, "[12]": {"system": "HCT-15"}, "[13]": {"system": "HL-60"}, "[14]": {"system": "HOP-62"}, "[15]": {"system": "HOP-92"}, "[16]": {"system": "HT-29"}, "[17]": {"system": "IGROV-1"}, "[18]": {"system": "K562"}, "[19]": {"system": "KM-20L2"}, "[20]": {"system": "LOX IMVI"}, "[21]": {"system": "LXFL 529"}, "[22]": {"system": "M14"}, "[23]": {"system": "M19-MEL"}, "[24]": {"system": "MOLT-4"}, "[25]": {"system": "Malme-3M"}, "[26]": {"system": "NCI-H226"}, "[27]": {"system": "NCI-H23"}, "[28]": {"system": "NCI-H460"}, "[29]": {"system": "NCI-H522"}, "[30]": {"system": "OVCAR-3"}, "[31]": {"system": "OVCAR-4"}, "[32]": {"system": "OVCAR-5"}, "[33]": {"system": "OVCAR-8"}, "[34]": {"system": "RPMI-8226"}, "[35]": {"system": "RXF 393"}, "[36]": {"system": "SF-268"}, "[37]": {"system": "SF-295"}, "[38]": {"system": "SF-539"}, "[39]": {"system": "SK-MEL-28"}, "[40]": {"system": "SK-MEL-2"}, "[41]": {"system": "SK-MEL-5"}, "[42]": {"system": "SK-OV-3"}, "[43]": {"system": "SN12C"}, "[44]": {"system": "SNB-19"}, "[45]": {"system": "SNB-75"}, "[46]": {"system": "SW-620"}, "[47]": {"system": "TK-10"}, "[48]": {"system": "UACC-257"}, "[49]": {"system": "UACC-62"}, "[50]": {"system": "UO-31"}, "[51]": {"system": "XF498"}},
  "note": "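Five concentrations, 48 hours, 96-well plates. GI50 marks 50% less growth.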 The source made the active and inactive calls. Cut-off read from the data, not from the text of the source: active = GI50 up to about 1.1 µM and inactive = higher.",
  "data": [
    {"smiles": "CC(=O)O[C@H]1CC[C@@]2(C)C(=C/C(=N\\[N+](=O)[O-])[C@H]3C4CCC([C@H](C)CCCC(C)C)[C@@]4(C)CCC32)C1", "note": "(stereo partly specified)", "values": [
      {"measurement": "GI50", "setting": "[1]", "value": "> 100 µM (inactive)"},
      {"measurement": "GI50", "setting": "[2]", "value": "> 100 µM (inactive)"},
      {"measurement": "GI50", "setting": "[3]", "value": "> 100 µM (inactive)"},
      {"measurement": "GI50", "setting": "[4]", "value": "> 100 µM (inactive)"},
      {"measurement": "GI50", "setting": "[5]", "value": "> 100 µM (inactive)"},
      {"measurement": "GI50", "setting": "[6]", "value": "> 100 µM (inactive)"},
      {"measurement": "GI50", "setting": "[7]", "value": "> 100 µM (inactive)"},
      {"measurement": "GI50", "setting": "[8]", "value": "> 100 µM (inactive)"},
      {"measurement": "GI50", "setting": "[9]", "value": "> 100 µM (inactive)"},
      {"measurement": "GI50", "setting": "[10]", "value": "> 100 µM (inactive)"},
      {"measurement": "GI50", "setting": "[11]", "value": "> 100 µM (inactive)"},
      {"measurement": "GI50", "setting": "[12]", "value": "> 100", "unit": "µM"},
      {"measurement": "GI50", "setting": "[13]", "value": "> 100 µM (inactive)"},
      {"measurement": "GI50", "setting": "[14]", "value": "> 100 µM (inactive)"},
      {"measurement": "GI50", "setting": "[15]", "value": "> 100 µM (inactive)"},
      {"measurement": "GI50", "setting": "[16]", "value": "> 100 µM (inactive)"},
      {"measurement": "GI50", "setting": "[17]", "value": "> 100 µM (inactive)"},
      {"measurement": "GI50", "setting": "[18]", "value": "> 100 µM (inactive)"},
      {"measurement": "GI50", "setting": "[19]", "value": "> 100 µM (inactive)"},
      {"measurement": "GI50", "setting": "[20]", "value": "> 100 µM (inactive)"},
      {"measurement": "GI50", "setting": "[21]", "value": "> 100 µM (inactive)"},
      {"measurement": "GI50", "setting": "[22]", "value": "> 100 µM (inactive)"},
      {"measurement": "GI50", "setting": "[23]", "value": "> 100 µM (inactive)"},
      {"measurement": "GI50", "setting": "[24]", "value": "> 100 µM (inactive)"},
      {"measurement": "GI50", "setting": "[25]", "value": "> 100 µM (inactive)"},
      {"measurement": "GI50", "setting": "[26]", "value": "> 100 µM (inactive)"},
      {"measurement": "GI50", "setting": "[27]", "value": "> 100 µM (inactive)"},
      {"measurement": "GI50", "setting": "[28]", "value": "> 100 µM (inactive)"},
      {"measurement": "GI50", "setting": "[29]", "value": "> 100 µM (inactive)"},
      {"measurement": "GI50", "setting": "[30]", "value": "> 100 µM (inactive)"},
      {"measurement": "GI50", "setting": "[31]", "value": "> 100 µM (inactive)"},
      {"measurement": "GI50", "setting": "[32]", "value": "> 100 µM (inactive)"},
      {"measurement": "GI50", "setting": "[33]", "value": "> 100 µM (inactive)"},
      {"measurement": "GI50", "setting": "[34]", "value": "> 100 µM (inactive)"},
      {"measurement": "GI50", "setting": "[35]", "value": "> 100 µM (inactive)"},
      {"measurement": "GI50", "setting": "[36]", "value": "> 100 µM (inactive)"},
      {"measurement": "GI50", "setting": "[37]", "value": "> 100 µM (inactive)"},
      {"measurement": "GI50", "setting": "[38]", "value": "> 100 µM (inactive)"},
      {"measurement": "GI50", "setting": "[39]", "value": "> 100 µM (inactive)"},
      {"measurement": "GI50", "setting": "[40]", "value": "> 100 µM (inactive)"},
      {"measurement": "GI50", "setting": "[41]", "value": "> 100 µM (inactive)"},
      {"measurement": "GI50", "setting": "[42]", "value": "> 100 µM (inactive)"},
      {"measurement": "GI50", "setting": "[43]", "value": "> 100 µM (inactive)"},
      {"measurement": "GI50", "setting": "[44]", "value": "> 100 µM (inactive)"},
      {"measurement": "GI50", "setting": "[45]", "value": "> 100 µM (inactive)"},
      {"measurement": "GI50", "setting": "[46]", "value": "> 100 µM (inactive)"},
      {"measurement": "GI50", "setting": "[47]", "value": "> 100 µM (inactive)"},
      {"measurement": "GI50", "setting": "[48]", "value": "> 100 µM (inactive)"},
      {"measurement": "GI50", "setting": "[49]", "value": "> 100 µM (inactive)"},
      {"measurement": "GI50", "setting": "[50]", "value": "> 100 µM (inactive)"},
      {"measurement": "GI50", "setting": "[51]", "value": "> 100 µM (inactive)"}
    ]}
  ]
}
